Here are results for five compounds from patent publication EP2865421A1, “Bitter taste receptor agonists for topical use” (Albert-Ludwigs-Universität Freiburg, priority 2013, dated 2015).

The target of one data set is T1, T2R38 (Homo sapiens, UniProt P59533, A49P/I296V).
T1 construct: endogenous in cells; host or cells: JEG-3 (human placental cell line)
T1 sequence (P59533 1-333 A49P/I296V): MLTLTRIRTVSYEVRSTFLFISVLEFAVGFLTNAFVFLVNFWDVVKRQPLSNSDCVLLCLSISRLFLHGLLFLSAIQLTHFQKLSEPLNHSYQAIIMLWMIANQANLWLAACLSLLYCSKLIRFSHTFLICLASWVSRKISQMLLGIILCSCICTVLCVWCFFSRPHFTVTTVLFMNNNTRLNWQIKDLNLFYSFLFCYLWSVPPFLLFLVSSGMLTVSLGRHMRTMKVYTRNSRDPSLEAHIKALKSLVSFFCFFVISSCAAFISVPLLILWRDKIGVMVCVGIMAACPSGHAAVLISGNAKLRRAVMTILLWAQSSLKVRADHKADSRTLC
Kind of data set: PTC-induced calcium influx in taster cell line JEG-3 and its inhibition by probenecid. In kind it is cell-based. How it is done:
Intracellular Ca^2+ concentration measurements in single cells were carried out using the fluorescence indicator fura-2-am (Invitrogen). Cells were washed with a buffer containing 130 mM NaCl, 5 mM KCI, 10 mM HEPES, 10 mM Glucose and 1 mM CaCl2 adjusted to pH 7.4 and loaded with 2 µM fura-2-am and 0.04% Pluronic F-127 (Invitrogen) for 30 min. After rinsing twice, cells were allowed to de-esterify fura-2-am for 30 min. Measurements were performed with a monochromator-based imaging system attached to an inverted microscope (Axiovert S100, Zeiss). Fluorescence was excited at 340 and 380 nm and emission measured at 510 nm. After 60s, cells were stimulated with various concentrations of diphenidol or amarogentin, 100 µM PTC or the respective solvent control. T2R38 receptor inhibition was performed by pre-incubation of JEG-3 cells for 1h with the T2R38 antagonist probenecid (1 mM) before PTC stimulation. After correction of background fluorescence, the fluorescence ratio was calculated using Axiovision software.

Another data set has as its system LAD-2 cells. In kind it is cell-based, human.
Data set [1] deals with LAD-2 human mast cells. Briefly: Degranulation assay: histamine release from SP-stimulated LAD-2 mast cells (ELISA). To be noted: SP 2 µM, 1 h, 30 min pre-incubation, amarogentin 136 µM, azelastine 24 µM (Figure 14A). It is filed as cell-based. The procedure: (§1) LAD-2 human mast cells (obtained from Dr. A. Kirshenbaum NIH) were cultured in serum-free media (StemPro-34, Gibco, Germany) supplemented with 2mM L-glutamine and 100 ng/ml rhSCF (recombinant human stem cell factor; Cell signaling technologies). The human keratinocyte cell line HaCaT was cultured in Dulbecco's modified essential medium (DMEM; Invitrogen) containing 10% fetal calf serum (FCS; PAA, Pasching, Austria) at 37 °C in a humidified atmosphere with 5% CO2. LAD-2 cells were washed with PBS and resuspended in complete medium. LAD-2 cells (2x10^5 cells /400 µl/well) were plated in 48 well flat bottom Falcon cell culture plates from Becton Dickinson and then stimulated with SP (2 µM, Sigma-Aldrich) for 1 or 24 h. Some cells were pre-incubated for 30 min with amarogentin (136 µM, Phytolab), diphenidol (136 µM, Santa Cruz) or azelastine (24 µM, Sigma) as indicated. The supernatants were collected for further assays. Mast cell degranulation was assessed by measuring histamine in the supernatant fluid 1 h after cell stimulation with SP (2 µM). Histamine levels were assayed using a Histamine ELISA from IBL international.

Data set [2] deals with LAD-2 human mast cells. Kind of data set: TNF-α release from SP-stimulated LAD-2 mast cells (ELISA). In kind it is cell-based. The conditions noted are these: SP 2 µM, 24 h, 30 min pre-incubation, amarogentin 136 µM, diphenidol 136 µM, azelastine 24 µM (Figure 14B). How it is done:
as §1, with “assays. TNF-α, IL-6, IL-8 and MMP-1 release into” for “assays. Mast cell degranulation was assessed by measuring histamine in”, “fluid 24” for “fluid 1”, “stimulation (either LAD-2 oder HaCaT cells)” for “stimulation with SP (2 µM). Histamine levels”, “were measured by Enzyme-Linked Immunosorbent Assay (ELISA)” for “were assayed”, “a commercial kit” for “a Histamine ELISA”, “from R&D Systems according to the manual instructions.” for “from IBL international.”

Data set [3] concerns keratinocyte cell line HaCaT. Briefly: IL-6 and MMP-1 release from HaCaT stimulated with histamine and IFN-γ (ELISA). In kind it is cell-based, human. The conditions noted are these: histamine + IFN-γ (200U/ml), 24 h, amarogentin 136 µM, azelastine 24 µM (Figure 15B). How it is done:
The Keratinocyte cell line HaCaT (2x10^5 cells /400 µl/well) were plated in 48 well flat bottom Falcon cell culture plates from Becton Dickinson and then stimulated with histamine (100 µl) and TNF-α (25 ng/ml) or IFNγ (200U/ml) for 24 h. Some cells were pre-incubated for 30 min with amarogentin (136 µM, Phytolab), diphenidol (136 µM, Santa Cruz) or azelastine (24 µM, Sigma) as indicated. The supernatants were collected for further assays. TNF-α, IL-6, IL-8 and MMP-1 release into the supernatant fluid 24 h after cell stimulation (either LAD-2 oder HaCaT cells) were measured by Enzyme-Linked Immunosorbent Assay (ELISA) using a commercial kit from R&D Systems according to the manual instructions.

The next data set deals with HaCaT keratinocytes. Briefly: Calcium imaging (fura-2-am) in HaCaT keratinocytes. It is filed as cell-based, human. To be noted: for calcium influx: HaCaT cells. How it is done:
The human keratinocyte cell line HaCaT, the neuroblastoma cell line SH-SY5Y and the placental cell line JEG-3 were from CLS Cell Lines Service (Heidelberg, Germany) and cultured in Dulbecco's modified essential medium (DMEM; Invitrogen) containing 10% fetal calf serum (FCS; PAA, Pasching, Austria) at 37 °C in a humidified atmosphere with 5% CO2. For double fluorescence stainings the cells were seeded in a four-field chamber slides (Thermo Fisher Scientific GmbH; 1 ×10^5 cells/ml). For calcium imaging experiments, cells were seeded on polylysin (Sigma-Aldrich, Munich, Germany) coated cover slips at a density of 1.5 -2x 10^5. After isolation of human primary keratinocytes (hPK) from skin samples, the cells were incubated for 3 days with calcium (2 mM), amarogentin (100 μM) or diphenidol (100 μM) before RNA isolation and determination of the differentiation markers. Intracellular Ca^2+ concentration measurements in single cells were carried out using the fluorescence indicator fura-2-am (Invitrogen). Cells were washed with a buffer containing 130 mM NaCl, 5 mM KCI, 10 mM HEPES, 10 mM Glucose and 1 mM CaCl2 adjusted to pH 7.4 and loaded with 2 μM fura-2-am and 0.04% Pluronic F-127 (Invitrogen) for 30 min. After rinsing twice, cells were allowed to de-esterify fura-2-am for 30 min. Measurements were performed with a monochromator-based imaging system attached to an inverted microscope (Axiovert S100, Zeiss). Fluorescence was excited at 340 and 380 nm and emission measured at 510 nm. After 60s, cells were stimulated with various concentrations of diphenidol or amarogentin, 100 μM PTC or the respective solvent control. […] receptor inhibition was performed by pre-incubation of JEG-3 cells for 1h with the […] antagonist probenecid (1 mM) before PTC stimulation. After correction of background fluorescence, the fluorescence ratio was calculated using Axiovision software.

The test system of data set [4] is SH-SY5Y neuroblastoma cells. Briefly: Calcium imaging (fura-2-am) in SH-SY5Y neuroblastoma cells. In kind it is cell-based, human. To be noted: 100 µM diphenidol, significant, maximum stated for all cell lines (Figure 8). How it is done:
(§2) The human keratinocyte cell line HaCaT, the neuroblastoma cell line SH-SY5Y and the placental cell line JEG-3 were from CLS Cell Lines Service (Heidelberg, Germany) and cultured in Dulbecco's modified essential medium (DMEM; Invitrogen) containing 10% fetal calf serum (FCS; PAA, Pasching, Austria) at 37 °C in a humidified atmosphere with 5% CO2. For double fluorescence stainings the cells were seeded in a four-field chamber slides (Thermo Fisher Scientific GmbH; 1 ×10^5 cells/ml). For calcium imaging experiments, cells were seeded on polylysin (Sigma-Aldrich, Munich, Germany) coated cover slips at a density of 1.5 -2x 10^5. After isolation of human primary keratinocytes (hPK) from skin samples, the cells were incubated for 3 days with calcium (2 mM), amarogentin (100 μM) or diphenidol (100 μM) before RNA isolation and determination of the differentiation markers. Intracellular Ca^2+ concentration measurements in single cells were carried out using the fluorescence indicator fura-2-am (Invitrogen). Cells were washed with a buffer containing 130 mM NaCl, 5 mM KCI, 10 mM HEPES, 10 mM Glucose and 1 mM CaCl2 adjusted to pH 7.4 and loaded with 2 μM fura-2-am and 0.04% Pluronic F-127 (Invitrogen) for 30 min. […] Fluorescence was excited at 340 and 380 nm and emission measured at 510 nm. […] After correction of background fluorescence, the fluorescence ratio was calculated using Axiovision software.

For another data set, the system named is JEG-3 placental cells. Briefly: Calcium imaging (fura-2-am) in JEG-3 placental cells. In kind it is cell-based, human. To be noted: 100 µM diphenidol, significant, maximum stated for all cell lines (Figure 8). How it is done: as §2
The test system of data set [5] is human primary keratinocytes (hPKs). Briefly: Differentiation marker expression in human primary keratinocytes (RT-PCR). It is filed as cell-based. The conditions noted are these: 3 days, amarogentin 100 µM, diphenidol 100 µM or calcium 2 mM, vs untreated control (Figure 12). The procedure: The human keratinocyte cell line HaCaT, the neuroblastoma cell line SH-SY5Y and the placental cell line JEG-3 were from CLS Cell Lines Service (Heidelberg, Germany) and cultured in Dulbecco's modified essential medium (DMEM; Invitrogen) containing 10% fetal calf serum (FCS; PAA, Pasching, Austria) at 37 °C in a humidified atmosphere with 5% CO2. For double fluorescence stainings the cells were seeded in a four-field chamber slides (Thermo Fisher Scientific GmbH; 1 ×10^5 cells/ml). For calcium imaging experiments, cells were seeded on polylysin (Sigma-Aldrich, Munich, Germany) coated cover slips at a density of 1.5 -2x 10^5. After isolation of human primary keratinocytes (hPK) from skin samples, the cells were incubated for 3 days with calcium (2 mM), amarogentin (100 µM) or diphenidol (100 µM) before RNA isolation and determination of the differentiation markers. Reverse transcription PCR was performed as described (Muller et al.,2008). In brief, total RNA was isolated using the Trizol reagent (Invitrogen) according to the manusfacturer's instruction. […] The PCR primers (20 pmol each) used to amplify keratin 10 (KRT10), INV, TGM and ß-actine were already published (Muller et al., 2008). ß-actine was used as internal loading control. After gel electrophoresis quantification was archived with ImageJ software.

Data set [6] has as its system keratinocyte cell line HaCaT. Kind of data set: IL-8 and MMP-1 release from HaCaT stimulated with histamine and TNF-α (ELISA). It is filed as cell-based, human. To be noted: histamine + TNF-α (25 ng/ml), 24 h, amarogentin 136 µM 30 min pre-incubation (Figure 15A). How it is done:
The Keratinocyte cell line HaCaT (2x10^5 cells /400 µl/well) were plated in 48 well flat bottom Falcon cell culture plates from Becton Dickinson and then stimulated with histamine (100 µl) and TNF-α (25 ng/ml) or IFNγ (200U/ml) for 24 h. Some cells were pre-incubated for 30 min with amarogentin (136 µM, Phytolab), diphenidol (136 µM, Santa Cruz) or azelastine (24 µM, Sigma) as indicated. The supernatants were collected for further assays.
TNF-α, IL-6, IL-8 and MMP-1 release into the supernatant fluid 24 h after cell stimulation (either LAD-2 oder HaCaT cells) were measured by Enzyme-Linked Immunosorbent Assay (ELISA) using a commercial kit from R&D Systems according to the manual instructions.

Description for HaCaT cells: (§3) The method is based on the bioluminescence measurement of ATP that is present in metabolically active cells. Luciferase catalyzes the formation of light from ATP and luciferin. The emitted light intensity is directly proportional to the ATP concentration and is measured using a luminometer (Sirius HT; MWG).
Description for LAD-2 cells: as §3

For the compound `NC(=S)Nc1ccccc1` [PTC, Phenylthiocarbamid], at T2R38 (PTC 100 µM, JEG-3 cells (PAV taster), vs DMSO 0.05% (Figure 10)), the calcium influx entry is “induced calcium influx”.
On to `CN1CCCC(n2nc(Cc3ccc(Cl)cc3)c3ccccc3c2=O)CC1` (stereo not drawn) [azelastine], for which the cytotoxicity result in the data set on LAD-2 cells is listed as “no cytotoxicity”. For the same compound, the histamine release entry in the data set on LAD-2 human mast cells [1] was “inhibits histamine release”. Besides, the “secretion of TNF-α” value with LAD-2 human mast cells [2] was “blocked the secretion of TNF-α”. Besides, in [3], the IL-6 production entry is given as “decreased” and the MMP-1 production result is “decreased”.
In the case of `OC(CCCN1CCCCC1)(c1ccccc1)c1ccccc1` [diphenidol], the “calcium influx compared to the solvent control” value in the data set on HaCaT keratinocytes (100 µM diphenidol, HaCaT, significant, maximum stated for all cell lines (Figure 8)) was “up to 7 fold”; in [4], “up to 7 fold”; with JEG-3 placental cells, “up to 7 fold”. Further, the calcium influx result in the data set on HaCaT keratinocytes (diphenidol 30 µM, fura-2 ratio before/after stimulation vs solvent (Figure 11)) is on record as “significant calcium influx”. Also, in data set [5], the “expression of the differentiation marker keratin 10, involucrin und transglutaminase” value is given as “increased”. For the same compound, in the data set with LAD-2 human mast cells [2], the “secretion of TNF-α” value is “blocked the secretion of TNF-α”. The cytotoxicity entry in the data set on HaCaT cells was “no cytotoxicity”.
For the compound `CCCN(CCC)S(=O)(=O)c1ccc(C(=O)O)cc1` [probenecid], the PTC-induced calcium currents result at T2R38 (1h pre-incubation with probenecid (1 mM), then PTC 100 µM, JEG-3 cells) is “reduces PTC-induced calcium currents to solvent level”.
With amarogentin, the calcium influx entry in the data set with HaCaT keratinocytes (100 µM amarogentin, vs 0.1% EtOH (Figure 11)) is recorded as “significant calcium influx”. In addition, the “expression of the differentiation marker keratin 10, involucrin und transglutaminase” value in data set [5] is reported as “increased”. Besides, the cytotoxicity entry in the data set on LAD-2 cells is “no cytotoxicity”. Also, in the data set on LAD-2 human mast cells [1], the histamine release entry was “inhibits histamine release”. Also, the “secretion of TNF-α” value with LAD-2 human mast cells [2] is given as “blocked the secretion of TNF-α”. For the same compound, in data set [6], the “release of IL-8” value is “reduces the release” and the “release of MMP-1” value is “reduces the release”. In data set [3], the IL-6 production result was “decreased” and the MMP-1 production entry is listed as “decreased”. In addition, the cytotoxicity result in the data set with HaCaT cells is “no cytotoxicity”.
